These results are taken from ChEMBL document CHEMBL5046297, “Discovery of a Colon-Targeted Azo Prodrug of Tofacitinib through the Establishment of Colon-Specific Delivery Systems Constructed by 5-ASA-PABA-MAC and 5-ASA-PABA-Diamine for the Treatment of Ulcerative Colitis” (J Med Chem, 2022).

Series [1] in a line: Chemical stability in simulated intestinal fluid assessed as parent compound remaining incubated for 12 hrs by LC-MS/MS analysis. It counts as ADME, physicochemical. The note with it: simulated gi fluid.
Series [2] in a line: Chemical stability in simulated gastric fluid assessed as parent compound remaining incubated for 12 hrs by LC-MS/MS analysis. Type of series: ADME, physicochemical. The following applies: simulated gi fluid.
A short description of series [3]: Chemical stability of compound in pH 1.2 HCl buffer at 100 uM incubated for 24 hrs by HPLC analysis. The note with it: pH 1.2, 24 h. Type of series: physicochemical.
Series [4] is described as follows: Chemical stability of compound in pH 4.5 PBS buffer at 100 uM incubated for 24 hrs by HPLC analysis. The note with it: pH 4.5, 24 h. Type of series: physicochemical.
Series [5] can be described thus: Chemical stability of compound in pH 7.4 PBS buffer at 100 uM incubated for 24 hrs by HPLC analysis. It counts as physicochemical. The following applies: pH 7.4, 24 h.
A short description of series [6]: Prodrug conversion in Sprague-Dawley rat colon content suspension assessed as tofacitinib release measured upto 8 hrs by HPLC analysis. It counts as ADME, tissue-based.
Series [7] in a line: Prodrug conversion in Sprague-Dawley rat assessed as AUC (0 to infinity) of tofacitinib at 15 mg/kg, po measured up to 12 hrs by LC-MS/MS analysis. Type of series: ADME, organism-based. Set-up: route oral, dose 15 mg/kg, time <=12. The following applies: in vivo.
Series [8] in a line: Prodrug conversion in Sprague-Dawley rat assessed as Cmax of tofacitinib at 15 mg/kg, po measured up to 12 hrs by LC-MS/MS analysis. It counts as ADME, organism-based. Set-up: route oral, dose 15 mg/kg, time <=12. The note with it: in vivo.
A short description of series [9]: Prodrug conversion in Sprague-Dawley rat assessed as Tmax of tofacitinib at 15 mg/kg, po measured up to 12 hrs by LC-MS/MS analysis. Type of series: ADME, organism-based. The note with it: in vivo.
Series [10] in a line: Prodrug conversion in Sprague-Dawley rat assessed as elimination half life of tofacitinib at 15 mg/kg, po measured up to 12 hrs by LC-MS/MS analysis. It counts as ADME, organism-based. The following applies: in vivo.
The nature of series [11]: Prodrug conversion in BALB/c mouse plasma assessed as tofacitinib AUC(0 to 12 hrs) at 15 mg/kg, po measured upto 12 hrs by LC-MS/MS analysis. It counts as ADME, organism-based. More on the design: route oral, dose 15 mg/kg, time <=12. The following applies: in vivo.
Series [12] in a line: Prodrug conversion in BALB/c mouse duodenum assessed as tofacitinib AUC(0 to 12 hrs) at 15 mg/kg, po measured upto 12 hrs by LC-MS/MS analysis. It counts as ADME, organism-based. More on the design: route oral, dose 15 mg/kg, time <=12. The note with it: in vivo.
Series [13] is described as follows: Prodrug conversion in BALB/c mouse jejunum assessed as tofacitinib AUC(0 to 12 hrs) at 15 mg/kg, po measured upto 12 hrs by LC-MS/MS analysis. More on the design: route oral, dose 15 mg/kg, time <=12. The following applies: in vivo. It counts as ADME, organism-based.
The nature of series [14]: Prodrug conversion in BALB/c mouse ileum assessed as tofacitinib AUC(0 to 12 hrs) at 15 mg/kg, po measured upto 12 hrs by LC-MS/MS analysis. It counts as ADME, organism-based. Set-up: route oral, dose 15 mg/kg, time <=12. The following applies: in vivo.
Series [15] is described as follows: Prodrug conversion in BALB/c mouse colon assessed as tofacitinib AUC(0 to 12 hrs) at 15 mg/kg, po measured upto 12 hrs by LC-MS/MS analysis. It counts as ADME, organism-based. More on the design: route oral, dose 15 mg/kg, time <=12. The following applies: in vivo.

`COc1cc(/N=N/c2ccc(O)c(C(=O)O)c2)ccc1COC(=O)N(C)CCN(C)C(=O)n1ccc2c(N(C)[C@H]3CN(C(=O)CC#N)CC[C@H]3C)ncnc21`: the Stability result in series [1], in [2], in series [3], in series [4] and in series [5] was “Stable” each time. The Drug metabolism in series [6] came out at 2.44 mmol/L/h.

On to `C[C@@H]1CCN(C(=O)CC#N)C[C@@H]1N(C)c1ncnc2c1ccn2C(=O)N(C)CCN(C)C(=O)OCc1ccc(/N=N/c2ccc(O)c(C(=O)O)c2)cc1`, for which the Stability entry in series [1], in series [2], in [3], in series [4] and in series [5] was “Stable” each time. For the same compound, the Drug metabolism in series [6] was 2.114 mmol/L/h.

For `Cc1cc(/N=N/c2ccc(O)c(C(=O)O)c2)ccc1COC(=O)N(C)CCN(C)C(=O)n1ccc2c(N(C)[C@H]3CN(C(=O)CC#N)CC[C@H]3C)ncnc21`, the Stability entry in [1], in series [2], in series [3], in series [4] and in series [5] was “Stable” in each case. For the same compound, in series [6], the Drug metabolism is 2.72 mmol/L/h.

Turning to `COc1cc(COC(=O)N(C)CCN(C)C(=O)n2ccc3c(N(C)[C@H]4CN(C(=O)CC#N)CC[C@H]4C)ncnc32)ccc1/N=N/c1ccc(O)c(C(=O)O)c1`, the Stability entry in series [1], in series [2], in [3], in series [4] and in series [5] was “Stable” throughout. The Drug metabolism in [6] came to 2.46 mmol/L/h.

On to `C[C@@H]1CCN(C(=O)CC#N)C[C@@H]1N(C)c1ncnc2[nH]ccc12.O=C(O)CC(O)(CC(=O)O)C(=O)O` [TOFACITINIB CITRATE], for which the AUC – broadly, the area under the concentration-time curve, a measure of exposure – in series [7] stood at 70.66 nmol·h/mL; in series [11], 7.1 nmol·h/mL; in series [12], 67 nmol·h/mL; in series [13] it was 43 nmol·h/mL; in [14] it was 50.3 nmol·h/mL; in series [15], 167 nmol·h/mL. For the same compound, the Cmax (as a rule, the maximum level reached in the sampled fluid or tissue) in [8] came to 54.9 µM. The time of peak concentration (Tmax) – broadly, the time at which the peak concentration occurs – in series [9] stood at 25.2 min. Moreover, in series [10], the “beta t1/2” value was 3.94 h.

In the case of `C[C@@H]1CCN(C(=O)CC#N)C[C@@H]1N(C)c1ncnc2c1ccn2CNC(=O)OCc1ccc(/N=N/c2ccc(O)c(C(=O)O)c2)cc1`, the Stability entry in series [1], in series [2], in [3], in series [4] and in [5] was “Stable” each time. For the same compound, the Drug metabolism in series [6] amounted to 2.87 mmol/L/h.

As for `Cc1cc(COC(=O)N(C)CCN(C)C(=O)n2ccc3c(N(C)[C@H]4CN(C(=O)CC#N)CC[C@H]4C)ncnc32)ccc1/N=N/c1ccc(O)c(C(=O)O)c1`, the Stability result in [1], in series [2], in series [3], in [4] and in [5] was “Stable” each time. In series [6], the Drug metabolism worked out at 1.6 mmol/L/h.

Take `C[C@@H]1CCN(C(=O)CC#N)C[C@@H]1N(C)c1ncnc2c1ccn2C(=O)N(C)CCN(C)C(=O)OCc1ccc(/N=N/c2ccc(O)c(C(=O)O)c2)c(Cl)c1`: the Stability result in [1], in [2], in series [3], in series [4] and in [5] was “Stable” each time. Besides, the Drug metabolism in [6] came to 2.93 mmol/L/h.
